Data published in ChEMBL document CHEMBL1201861, “Genomics of Drug Sensitity in Cancer screening data, Wellcome Trust Sanger Institute”.

What was measured:
RT-112 = experiment: cells; format: functional, cell-based; conditions: Homo sapiens
Description: SANGER: Inhibition of human RT-112 cell growth in a cell viability assay.

FTC-133 = experiment: cells; format: functional, cell-based; conditions: Homo sapiens
TI-73 = experiment: cells; format: functional, cell-based; conditions: Homo sapiens
Description: SANGER: Inhibition of human TI-73 cell growth in a cell viability assay.

CAL-27 = experiment: cells; format: functional, cell-based; conditions: Homo sapiens
Description: SANGER: Inhibition of human CAL-27 cell growth in a cell viability assay.

HCC38 = experiment: cells; format: functional, cell-based; conditions: Homo sapiens
Description: SANGER: Inhibition of human HCC38 cell growth in a cell viability assay.

HT55 = experiment: cells; format: functional, cell-based; conditions: Homo sapiens
Description: SANGER: Inhibition of human HT55 cell growth in a cell viability assay.

TCC-SUP = experiment: cells; format: functional, cell-based; conditions: Homo sapiens
Description: SANGER: Inhibition of human TCCSUP cell growth in a cell viability assay.

HLE = experiment: cells; format: functional, cell-based; conditions: Homo sapiens
Description: SANGER: Inhibition of human HLE cell growth in a cell viability assay.

CAL-39 = experiment: cells; format: functional, cell-based; conditions: Homo sapiens
Description: SANGER: Inhibition of human CAL-39 cell growth in a cell viability assay.

MeWo = experiment: cells; format: functional, cell-based; conditions: Homo sapiens
Description: SANGER: Inhibition of human Mewo cell growth in a cell viability assay.

CHP-212 = experiment: cells; format: functional, cell-based; conditions: Homo sapiens
Description: SANGER: Inhibition of human CHP-212 cell growth in a cell viability assay.

MDA-MB-175-VII = experiment: cells; format: functional, cell-based; conditions: Homo sapiens
786-0 = experiment: cells; format: functional, cell-based; conditions: Homo sapiens
Description: SANGER: Inhibition of human 786-0 cell growth in a cell viability assay.

HN = experiment: cells; format: functional, cell-based; conditions: Homo sapiens
Description: SANGER: Inhibition of human HN cell growth in a cell viability assay.

T84 = experiment: cells; format: functional, cell-based; conditions: Homo sapiens
Description: SANGER: Inhibition of human T84 cell growth in a cell viability assay.

MG-63 = experiment: cells; format: functional, cell-based; conditions: Homo sapiens
Description: SANGER: Inhibition of human MG-63 cell growth in a cell viability assay.

HuO9 = experiment: cells; format: functional, cell-based; conditions: Homo sapiens
Description: SANGER: Inhibition of human HuO9 cell growth in a cell viability assay.

NCI-H1666 = experiment: cells; format: functional, cell-based; conditions: Homo sapiens
Description: SANGER: Inhibition of human NCI-H1666 cell growth in a cell viability assay.

COR-L23 = experiment: cells; format: functional, cell-based; conditions: Homo sapiens
Description: SANGER: Inhibition of human COR-L23 cell growth in a cell viability assay.

HSC-3 = experiment: cells; format: functional, cell-based; conditions: Homo sapiens
Description: SANGER: Inhibition of human HSC-3 cell growth in a cell viability assay.

SW48 = experiment: cells; format: functional, cell-based; conditions: Homo sapiens
Description: SANGER: Inhibition of human SW48 cell growth in a cell viability assay.

LU-135 = experiment: cells; format: functional, cell-based; conditions: Homo sapiens
Description: SANGER: Inhibition of human LU-135 cell growth in a cell viability assay.

EPLC-272H = experiment: cells; format: functional, cell-based; conditions: Homo sapiens
Description: SANGER: Inhibition of human EPLC-272H cell growth in a cell viability assay.

DK-MG = experiment: cells; format: functional, cell-based; conditions: Homo sapiens
Description: SANGER: Inhibition of human DK-MG cell growth in a cell viability assay.

MIA PaCa-2 = experiment: cells; format: functional, cell-based; conditions: Homo sapiens
Description: SANGER: Inhibition of human MIA-PaCa-2 cell growth in a cell viability assay.

KU-19-19 = experiment: cells; format: functional, cell-based; conditions: Homo sapiens
Description: SANGER: Inhibition of human KU-19-19 cell growth in a cell viability assay.

NBsusSR = experiment: cells; format: functional, cell-based; conditions: Homo sapiens
Description: SANGER: Inhibition of human NBsusSR cell growth in a cell viability assay.

UO-31 = experiment: cells; format: functional, cell-based; conditions: Homo sapiens
Description: SANGER: Inhibition of human U031 cell growth in a cell viability assay.

BHT-101 = experiment: cells; format: functional, cell-based; conditions: Homo sapiens
Description: SANGER: Inhibition of human BHT-101 cell growth in a cell viability assay.

Capan-2 = experiment: cells; format: functional, cell-based; conditions: Homo sapiens
Description: SANGER: Inhibition of human Capan-2 cell growth in a cell viability assay.

Calu-3 = experiment: cells; format: functional, cell-based; conditions: Homo sapiens
Description: SANGER: Inhibition of human Calu-3 cell growth in a cell viability assay.

BALL-1 = experiment: cells; format: functional, cell-based; conditions: Homo sapiens
Description: SANGER: Inhibition of human BALL-1 cell growth in a cell viability assay.

NCI-H345 = experiment: cells; format: functional, cell-based, Homo sapiens; conditions: Homo sapiens, NCI-H345
Description: SANGER: Inhibition of human NCI-H345 cell growth in a cell viability assay.

MRK-nu-1 = experiment: cells; format: functional, cell-based, Homo sapiens; conditions: Homo sapiens, MRK-nu-1
Description: SANGER: Inhibition of human MRK-nu-1 cell growth in a cell viability assay.

BC-3 = experiment: cells; format: functional, cell-based, Homo sapiens; conditions: Homo sapiens, BC-3
Description: SANGER: Inhibition of human BC-3 cell growth in a cell viability assay.

NCI-H128 = experiment: SANGER: Inhibition of human NCI-H128 cell growth in a cell viability assay.; format: functional, cell-based; conditions: Homo sapiens, NCI-H128
EC-GI-10 = experiment: cells; format: functional, cell-based, Homo sapiens; conditions: Homo sapiens, EC-GI-10
Description: SANGER: Inhibition of human EC-GI-10 cell growth in a cell viability assay.

SKM-1 = experiment: SANGER: Inhibition of human SKM-1 cell growth in a cell viability assay.; format: functional, cell-based; conditions: Homo sapiens, SKM-1
EVSA-T = experiment: cells; format: functional, cell-based, Homo sapiens; conditions: Homo sapiens, EVSA-T
Description: SANGER: Inhibition of human EVSA-T cell growth in a cell viability assay.

TUR = experiment: cells; format: functional, cell-based, Homo sapiens; conditions: Homo sapiens, TUR
Description: SANGER: Inhibition of human TUR cell growth in a cell viability assay.

EB2 = experiment: cells; format: functional, cell-based, Homo sapiens; conditions: Homo sapiens, EB2
Description: SANGER: Inhibition of human EB2 cell growth in a cell viability assay.

KMOE-2 = experiment: cells; format: functional, cell-based, Homo sapiens; conditions: Homo sapiens, KMOE-2
Description: SANGER: Inhibition of human KMOE-2 cell growth in a cell viability assay.

EW-24 = experiment: cells; format: functional, cell-based, Homo sapiens; conditions: Homo sapiens, EW-24
Description: SANGER: Inhibition of human EW-24 cell growth in a cell viability assay.

TE-15 = experiment: cells; format: functional, cell-based, Homo sapiens; conditions: Homo sapiens, TE-15
Description: SANGER: Inhibition of human TE-15 cell growth in a cell viability assay.

EW-12 = experiment: SANGER: Inhibition of human EW-12 cell growth in a cell viability assay.; format: functional, cell-based; conditions: Homo sapiens, EW-12

## CN(C)CCOc1ccc(-c2nc(-c3ccncc3)c(-c3ccc4c(c3)CC/C4=N\O)[nH]2)cc1 [SB590885]
RT-112
  IC50: > 5 µM
FTC-133
  IC50: > 5 µM
TI-73
  IC50: > 5 µM
CAL-27
  IC50: > 5 µM
HCC38
  IC50: > 5 µM
HT55
  IC50: > 5 µM
TCC-SUP
  IC50: > 5 µM
HLE
  IC50: > 5 µM
CAL-39
  IC50: > 5 µM
MeWo
  IC50: > 5 µM
CHP-212
  IC50: > 5 µM
MDA-MB-175-VII
  IC50: > 5 µM
786-0
  IC50: > 5 µM
HN
  IC50: > 5 µM
T84
  IC50: > 5 µM
MG-63
  IC50: > 5 µM
HuO9
  IC50: > 5 µM
NCI-H1666
  IC50: > 5 µM
COR-L23
  IC50: > 5 µM
HSC-3
  IC50: > 5 µM
SW48
  IC50: > 5 µM
LU-135
  IC50: > 5 µM
EPLC-272H
  IC50: > 5 µM
DK-MG
  IC50: > 5 µM
MIA PaCa-2
  IC50: > 5 µM
KU-19-19
  IC50: > 5 µM
NBsusSR
  IC50: > 5 µM
UO-31
  IC50: > 5 µM
BHT-101
  IC50: 1.63 µM
Capan-2
  IC50: > 5 µM
Calu-3
  IC50: > 5 µM
BALL-1
  IC50: > 5 µM

## C[C@@H](Oc1cc(-c2cnn(C3CCNCC3)c2)cnc1N)c1c(Cl)ccc(F)c1Cl [CRIZOTINIB]
NCI-H345
  IC50: > 2 µM
MRK-nu-1
  IC50: > 2 µM
BC-3
  IC50: > 2 µM
NCI-H128
  IC50: > 2 µM
EC-GI-10
  IC50: > 2 µM
SKM-1
  IC50: > 2 µM
EVSA-T
  IC50: > 2 µM
TUR
  IC50: > 2 µM
EB2
  IC50: > 2 µM
KMOE-2
  IC50: > 2 µM
EW-24
  IC50: > 2 µM
TE-15
  IC50: > 2 µM
EW-12
  IC50: > 2 µM

## NC(=O)c1cccc(-c2cc(Nc3ccc(OC(F)(F)F)cc3)ncn2)c1
NCI-H345
  IC50: > 1.28 µM
MRK-nu-1
  IC50: > 1.28 µM
BC-3
  IC50: > 1.28 µM
NCI-H128
  IC50: > 1.28 µM
EC-GI-10
  IC50: > 1.28 µM
SKM-1
  IC50: > 1.28 µM
EVSA-T
  IC50: > 1.28 µM
TUR
  IC50: > 1.28 µM
EB2
  IC50: > 1.28 µM
KMOE-2
  IC50: > 1.28 µM
EW-24
  IC50: > 1.28 µM
TE-15
  IC50: > 1.28 µM
EW-12
  IC50: > 1.28 µM

## C=CC(=O)N1CCCC(Nc2nc(Nc3ccc(N(C)C(=O)CC)cc3)nc3[nH]cnc23)C1 (configuration not stated)
NCI-H345
  IC50: > 10.2 µM
MRK-nu-1
  IC50: > 10.2 µM
BC-3
  IC50: 9.06 µM
NCI-H128
  IC50: > 10.2 µM
EC-GI-10
  IC50: > 10.2 µM
SKM-1
  IC50: > 10.2 µM
EVSA-T
  IC50: > 10.2 µM
TUR
  IC50: > 10.2 µM
EB2
  IC50: > 10.2 µM
KMOE-2
  IC50: > 10.2 µM
EW-24
  IC50: 4.59 µM
TE-15
  IC50: 1.85 µM
EW-12
  IC50: > 10.2 µM

## CC(C)C[C@H](NC(=O)[C@H](Cc1ccccc1)NC(=O)c1cnccn1)B(O)O [BORTEZOMIB]
NCI-H345
  IC50: 0.0072 µM
MRK-nu-1
  IC50: > 0.02 µM
BC-3
  IC50: 0.00661 µM
NCI-H128
  IC50: > 0.02 µM
EC-GI-10
  IC50: > 0.02 µM
SKM-1
  IC50: > 0.02 µM
EVSA-T
  IC50: 0.0036 µM
TUR
  IC50: > 0.02 µM
EB2
  IC50: 0.0181 µM
KMOE-2
  IC50: 0.00223 µM
EW-24
  IC50: 0.00208 µM
TE-15
  IC50: 0.00343 µM
EW-12
  IC50: > 0.02 µM

## NC1(c2ccc(-c3nc4ccn5c(=O)[nH]nc5c4cc3-c3ccccc3)cc2)CCC1 [MK-2206]
RT-112
  IC50: 3.52 µM
FTC-133
  IC50: > 4 µM
TI-73
  IC50: > 4 µM
CAL-27
  IC50: > 4 µM
HCC38
  IC50: > 4 µM
HT55
  IC50: > 4 µM
TCC-SUP
  IC50: > 4 µM
HLE
  IC50: > 4 µM
CAL-39
  IC50: > 4 µM
MeWo
  IC50: > 4 µM
CHP-212
  IC50: > 4 µM
MDA-MB-175-VII
  IC50: 0.137 µM
786-0
  IC50: > 4 µM
HN
  IC50: > 4 µM
T84
  IC50: > 4 µM
MG-63
  IC50: > 4 µM
HuO9
  IC50: 0.928 µM
COR-L23
  IC50: > 4 µM
HSC-3
  IC50: > 4 µM
SW48
  IC50: > 4 µM
LU-135
  IC50: > 4 µM
EPLC-272H
  IC50: 1.17 µM
DK-MG
  IC50: > 4 µM
MIA PaCa-2
  IC50: > 4 µM
KU-19-19
  IC50: > 4 µM
NBsusSR
  IC50: > 4 µM
BHT-101
  IC50: 0.53 µM
Capan-2
  IC50: > 4 µM
Calu-3
  IC50: > 4 µM
BALL-1
  IC50: > 4 µM

## Cc1cc(N2CCOCC2)cc2[nH]c(-c3c(NC[C@@H](O)c4cccc(Cl)c4)cc[nH]c3=O)nc12
NCI-H345
  IC50: > 5.12 µM
MRK-nu-1
  IC50: > 5.12 µM
BC-3
  IC50: 4.34 µM
NCI-H128
  IC50: > 5.12 µM
EC-GI-10
  IC50: > 5.12 µM
SKM-1
  IC50: > 5.12 µM
EVSA-T
  IC50: > 5.12 µM
TUR
  IC50: > 5.12 µM
EB2
  IC50: > 5.12 µM
KMOE-2
  IC50: > 5.12 µM
EW-24
  IC50: > 5.12 µM
TE-15
  IC50: 0.813 µM
EW-12
  IC50: > 5.12 µM
